Experimental data from US20150105252A1, “SUBSTITUTED PYRAZOLES AS HERBICIDES” (E I DU PONT DE NEMOURS AND COMPANY, priority 2013, published 2015).

Columns and labels:
ryegrass, Italian = assay: Test D postemergence; assay type: in vivo, Lolium multiflorum; details: scale 0 to 100
Outline: (§1)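 Visual 0-100 rating (100 = complete control) against untreated plants, made 14 to 21 days after treatment in a controlled environment. Compounds, formulated with surfactant in non-phytotoxic solvent, were applied either to seeds just sown in silt loam or to 1- to 4-leaf plants (2 to 18 cm) grown in peat-based medium.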

chickweed = assay: Test D postemergence; assay type: in vivo, Stellaria media; details: scale 0 to 100
Outline: as §1

mustard, wild = assay: Test D preemergence; assay type: in vivo, Sinapis arvensis; details: scale 0 to 100
Outline: as §1

wheat, spring = assay: Test D preemergence; assay type: in vivo, Triticum aestivum; details: scale 0 to 100
Outline: as §1

wheat, winter = assay: Test D preemergence; assay type: in vivo, Triticum aestivum; details: scale 0 to 100
Outline: as §1

barley, winter = assay: Test D preemergence; assay type: in vivo, Hordeum vulgare; details: scale 0 to 100
Outline: as §1

barley, spring = assay: Test D preemergence; assay type: in vivo, Hordeum vulgare; details: scale 0 to 100
Outline: as §1

southern sandbur = assay: Test F preemergence; assay type: in vivo, Cenchrus echinatus
Outline: (§2)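 Visual rating 0–100 vs untreated controls (0 = no effect, 100 = complete control) after 14–21 d greenhouse. Pre: seeds in silt loam soil. Post: plants 2–18 cm, 1–4 leaf. Formulation: non-phytotoxic solvent mix + surfactant.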

pigweed = assay: Test D preemergence; assay type: in vivo, Amaranthus retroflexus; details: scale 0 to 100
Outline: as §1

speedwell [1] = assay: Test D preemergence; assay type: in vivo, Veronica persica; details: scale 0 to 100
Outline: as §1

lambsquarters = assay: Test D preemergence; assay type: in vivo, Chenopodium album; details: scale 0 to 100
Outline: as §1

field poppy = assay: Test D preemergence; assay type: in vivo, Papaver rhoeas; details: scale 0 to 100
Outline: as §1

hairy beggarticks = assay: Test F preemergence; assay type: in vivo, Bidens pilosa
Outline: as §2

speedwell [2] = assay: Test D postemergence; assay type: in vivo, Veronica persica; details: scale 0 to 100
Outline: as §1

[3] = Preemergence, 31 g ai/ha, scale 0 to 100
[4] = Preemergence, 62 g ai/ha, scale 0 to 100
[5] = Preemergence, 125 g ai/ha, scale 0 to 100
[6] = preemergence, 8 g ai/ha, scale 0 to 100, 100 is complete control
[7] = preemergence, 16 g ai/ha, scale 0 to 100, 100 is complete control

## CCCc1cc(C(=O)NCC(F)(F)F)nn1Cc1ccnc(C(F)(F)F)c1 [Compound 105]
ryegrass, Italian; Postemergence, 31 g ai/ha
  Ryegrass, Italian plant response rating: 5
ryegrass, Italian; Postemergence, 125 g ai/ha
  Ryegrass, Italian plant response rating: 40
ryegrass, Italian; Postemergence, 250 g ai/ha
  Ryegrass, Italian plant response rating: 65
ryegrass, Italian; postemergence, 62 g ai/ha
  Ryegrass, Italian plant response rating: 5
chickweed; Postemergence, 31 g ai/ha
  Chickweed plant response rating: 20
chickweed; Postemergence, 125 g ai/ha
  Chickweed plant response rating: 70
chickweed; Postemergence, 250 g ai/ha
  Chickweed plant response rating: 80
chickweed; postemergence, 62 g ai/ha
  Chickweed plant response rating: 55
mustard, wild; 31 g ai/ha
  Plant response rating, Mustard, Wild: 100
mustard, wild; 62 g ai/ha
  Plant response rating, Mustard, Wild: 100
mustard, wild; 125 g ai/ha
  Plant response rating, Mustard, Wild: 100
mustard, wild; 250 g ai/ha
  Plant response rating, Mustard, Wild: 100
wheat, spring; 31 g ai/ha
  Plant response rating, Wheat, Spring: 10
wheat, spring; 62 g ai/ha
  Plant response rating, Wheat, Spring: 40
wheat, spring; 125 g ai/ha
  Plant response rating, Wheat, Spring: 75
wheat, spring; 250 g ai/ha
  Plant response rating, Wheat, Spring: 100
wheat, winter; 31 g ai/ha
  Plant response rating, Wheat, Winter: 15
wheat, winter; 62 g ai/ha
  Plant response rating, Wheat, Winter: 35
wheat, winter; 125 g ai/ha
  Plant response rating, Wheat, Winter: 75
wheat, winter; 250 g ai/ha
  Plant response rating, Wheat, Winter: 90
barley, winter; 31 g ai/ha
  Plant response rating, Barley, Winter: 5
barley, winter; 62 g ai/ha
  Plant response rating, Barley, Winter: 40
barley, winter; 125 g ai/ha
  Plant response rating, Barley, Winter: 70
barley, winter; 250 g ai/ha
  Plant response rating, Barley, Winter: 95
barley, spring; 31 g ai/ha
  Plant response rating, Barley, Spring: 15
barley, spring; 62 g ai/ha
  Plant response rating, Barley, Spring: 40
barley, spring; 125 g ai/ha
  Plant response rating, Barley, Spring: 65
barley, spring; 250 g ai/ha
  Plant response rating, Barley, Spring: 85
Southern sandbur; [3]
  Plant response rating, Southern Sandbur: 10
Southern sandbur; [4]
  Plant response rating, Southern Sandbur: 75
Southern sandbur; [5]
  Plant response rating, Southern Sandbur: 95
Southern sandbur; [6]
  Plant response rating, Southern Sandbur: 0
Southern sandbur; [7]
  Plant response rating, Southern Sandbur: 0
pigweed; 31 g ai/ha
  Plant response rating, Pigweed: 100
pigweed; 62 g ai/ha
  Plant response rating, Pigweed: 100
pigweed; 125 g ai/ha
  Plant response rating, Pigweed: 100
pigweed; 250 g ai/ha
  Plant response rating, Pigweed: 100
Speedwell [1]; 31 g ai/ha
  Plant response rating, Speedwell: 100
Speedwell [1]; 62 g ai/ha
  Plant response rating, Speedwell: 100
Speedwell [1]; 125 g ai/ha
  Plant response rating, Speedwell: 100
Speedwell [1]; 250 g ai/ha
  Plant response rating, Speedwell: 100
lambsquarters; 31 g ai/ha
  Plant response rating, Lambsquarters: 100
lambsquarters; 62 g ai/ha
  Plant response rating, Lambsquarters: 100
lambsquarters; 125 g ai/ha
  Plant response rating, Lambsquarters: 100
lambsquarters; 250 g ai/ha
  Plant response rating, Lambsquarters: 100
Field poppy; 31 g ai/ha
  Plant response rating, Field Poppy: 100
Field poppy; 62 g ai/ha
  Plant response rating, Field Poppy: 100
Field poppy; 125 g ai/ha
  Plant response rating, Field Poppy: 100
Field poppy; 250 g ai/ha
  Plant response rating, Field Poppy: 100
Hairy beggarticks; [3]
  Plant response rating, Hairy Beggarticks: 0
Hairy beggarticks; [4]
  Plant response rating, Hairy Beggarticks: 20
Hairy beggarticks; [5]
  Plant response rating, Hairy Beggarticks: 40
Hairy beggarticks; [6]
  Plant response rating, Hairy Beggarticks: 0
Hairy beggarticks; [7]
  Plant response rating, Hairy Beggarticks: 0
Speedwell [2]; Postemergence, 31 g ai/ha
  Speedwell plant response rating: 60
Speedwell [2]; Postemergence, 125 g ai/ha
  Speedwell plant response rating: 70
Speedwell [2]; Postemergence, 250 g ai/ha
  Speedwell plant response rating: 95
Speedwell [2]; postemergence, 62 g ai/ha
  Speedwell plant response rating: 80

## CCOc1cc(C(=O)NC(C)C)nn1Cc1ccnc(C(F)(F)F)c1 [Compound 188]
ryegrass, Italian; Postemergence, 31 g ai/ha
  Ryegrass, Italian plant response rating: 20
ryegrass, Italian; Postemergence, 125 g ai/ha
  Ryegrass, Italian plant response rating: 25
ryegrass, Italian; Postemergence, 250 g ai/ha
  Ryegrass, Italian plant response rating: 65
ryegrass, Italian; postemergence, 62 g ai/ha
  Ryegrass, Italian plant response rating: 20
chickweed; Postemergence, 31 g ai/ha
  Chickweed plant response rating: 65
chickweed; Postemergence, 125 g ai/ha
  Chickweed plant response rating: 75
chickweed; Postemergence, 250 g ai/ha
  Chickweed plant response rating: 95
chickweed; postemergence, 62 g ai/ha
  Chickweed plant response rating: 65
mustard, wild; 62 g ai/ha
  Plant response rating, Mustard, Wild: 100
mustard, wild; 125 g ai/ha
  Plant response rating, Mustard, Wild: 100
mustard, wild; 250 g ai/ha
  Plant response rating, Mustard, Wild: 100
wheat, spring; 62 g ai/ha
  Plant response rating, Wheat, Spring: 70
wheat, spring; 125 g ai/ha
  Plant response rating, Wheat, Spring: 100
wheat, spring; 250 g ai/ha
  Plant response rating, Wheat, Spring: 100
wheat, winter; 62 g ai/ha
  Plant response rating, Wheat, Winter: 65
wheat, winter; 125 g ai/ha
  Plant response rating, Wheat, Winter: 95
wheat, winter; 250 g ai/ha
  Plant response rating, Wheat, Winter: 100
barley, winter; 31 g ai/ha
  Plant response rating, Barley, Winter: 35
barley, winter; 62 g ai/ha
  Plant response rating, Barley, Winter: 70
barley, winter; 125 g ai/ha
  Plant response rating, Barley, Winter: 80
barley, winter; 250 g ai/ha
  Plant response rating, Barley, Winter: 100
barley, spring; 31 g ai/ha
  Plant response rating, Barley, Spring: 65
barley, spring; 62 g ai/ha
  Plant response rating, Barley, Spring: 75
barley, spring; 125 g ai/ha
  Plant response rating, Barley, Spring: 85
barley, spring; 250 g ai/ha
  Plant response rating, Barley, Spring: 95
Southern sandbur; [4]
  Plant response rating, Southern Sandbur: 65
Southern sandbur; [5]
  Plant response rating, Southern Sandbur: 100
Southern sandbur; [6]
  Plant response rating, Southern Sandbur: 0
pigweed; 62 g ai/ha
  Plant response rating, Pigweed: 100
pigweed; 125 g ai/ha
  Plant response rating, Pigweed: 100
pigweed; 250 g ai/ha
  Plant response rating, Pigweed: 100
Speedwell [1]; 62 g ai/ha
  Plant response rating, Speedwell: 100
Speedwell [1]; 125 g ai/ha
  Plant response rating, Speedwell: 100
Speedwell [1]; 250 g ai/ha
  Plant response rating, Speedwell: 100
lambsquarters; 62 g ai/ha
  Plant response rating, Lambsquarters: 100
lambsquarters; 125 g ai/ha
  Plant response rating, Lambsquarters: 100
lambsquarters; 250 g ai/ha
  Plant response rating, Lambsquarters: 100
Field poppy; 62 g ai/ha
  Plant response rating, Field Poppy: 100
Field poppy; 125 g ai/ha
  Plant response rating, Field Poppy: 100
Field poppy; 250 g ai/ha
  Plant response rating, Field Poppy: 100
Hairy beggarticks; [4]
  Plant response rating, Hairy Beggarticks: 0
Hairy beggarticks; [5]
  Plant response rating, Hairy Beggarticks: 0
Hairy beggarticks; [6]
  Plant response rating, Hairy Beggarticks: 0
Speedwell [2]; Postemergence, 31 g ai/ha
  Speedwell plant response rating: 75
Speedwell [2]; Postemergence, 125 g ai/ha
  Speedwell plant response rating: 80
Speedwell [2]; Postemergence, 250 g ai/ha
  Speedwell plant response rating: 90
Speedwell [2]; postemergence, 62 g ai/ha
  Speedwell plant response rating: 75
